From patent US12448366B2, “Solid forms of pralsetinib” (Rigel Pharmaceuticals, Inc., priority 2020, dated 2025)
Converted amounts (≈) assume the structure as drawn.

Key:
Assay type in all cases: physicochemical
[1] = Dynamic vapor sorption (DVS)
Description: Dynamic Vapor Sorption (DVS) was done using a DVS Intrinsic 1. The sample is loaded into a sample pan and suspended from a microbalance. A typical sample mass for DVS measurement is 25 mg. Nitrogen gas bubbled through distilled water provides the desired relative humidity. A typical measurement comprises the steps: • 1—Equilibrate at 50% RH • 2—50% to 2%. (50%, 40%, 30%, 20%, 10% and 2%) • a. Hold minimum of 5 mins and maximum of 60 minutes at each humidity. The pass criteria is less than 0.002% change • 3—2% to 95% (2%, 10%, 20%, 30%, 40%, 50%, 60%, 70%, 80%, 90%, 95%) • a. Hold minimum of 5 mins and maximum of 60 minutes at each humidity. The pass criteria is less than 0.002% change • 4—95% to 2% (95%, 80%, 70%, 60%, 50%, 40%, 30%, 20%, 10%, 2%) • a. Hold minimum of 5 mins and maximum of 60 minutes at each humidity. The pass criteria is less than 0.002% change • 5—2% to 50% (2%, 10%, 20%, 30%, 40%, 50%) • a. Hold minimum of 5 mins and maximum of 60 minutes at each humidity. The pass criteria is less than 0.002% change High Pressure Liquid Chromatography (HPLC)
Dynamic Vapor Sorption (DVS) was performed using a DVS Intrinsic 1. The samples (12-31 mg) was loaded into a sample pan, suspended from a microbalance and exposed to a humidified stream of nitrogen gas. The sample was held for a minimum of 5 min at each level and only progressed to the next humidity level if there was <0.002% change in weight between measurements (interval: 60 seconds) or 240 min had elapsed. The following program was used: • 1—Equilibration at 50% RH • 2—50% to 2%. (50%, 40%, 30%, 20%, 10% and 2%) • 3—2% to 95% (2%, 10%, 20%, 30%, 40%, 50%, 60%, 70%, 80%, 90%, 95%) • 4—95% to 2% (95%, 80%, 70%, 60%, 50%, 40%, 30%, 20%, 10%, 2%) • 5—2% to 50% (2%, 10%, 20%, 30%, 40%, 50%) High Performance Liquid Chromatography (HPLC)

[2] = Humidity exposure, 75% relative humidity at 40° C. for one week, XRPD; details: XRPD pattern after exposure; listed as Glutarate 11-A
[3] = Solubility in water and simulated fluids (fasted/fed state simulated intestinal fluid, fasted state simulated gastric fluid); details: water, room temperature; read-out: water solubility at room temperature
[4] = One week (7 days) slurry stability by XRPD and HPLC; details: XRPD and HPLC, listed as solid form 11-A
[5] = Salt screening: XRPD of wet cake, after drying under vacuum at 50° C., after exposure to 97% relative humidity; details: XRPD; for stability of salt solid form to humidification: 97% (>95%) relative humidity; for stability of salt solid form to drying: vacuum at 50° C.
[6] = DSC and TGA/DSC thermal analysis; details: listed as Glutarate 11-A
Description: Differential scanning calorimetry was done using a Mettler Toledo DSC3+. The desired amount of sample is weighed directly in a hermetic aluminum pan with pin-hole. A typical sample mass for is 3-5 mg. A typical temperature range is 30° C. to 300° C. at a heating rate of 10° C. per minute (total time of 27 minutes). Typical parameters for DSC are listed below.
Thermogravimetric analysis and differential scanning calorimetry was done using a Mettler Toledo TGA/DSC3+. The desired amount of sample is weighed directly in a hermetic aluminum pan with pin-hole. A typical sample mass for the measurement is 5-10 mg. A typical temperature range is 30° C. to 300° C. at a heating rate of 10° C. per minute (total time of 27 minutes). Protective and purge gasses are nitrogen (20-30 mL/min and 50-100 mL/min). Typical parameters for DSC/TGA are listed below.
Differential scanning calorimetry was performed using a Mettler Toledo DSC3+. The sample (3-5 mg) was weighed directly in a 40 μL hermetic aluminum pan with pin-hole and analyzed according to the parameters below:
Thermogravimetric analysis and differential scanning calorimetry were performed on the same sample simultaneously using a Mettler Toledo TGA/DSC3+. […] The desired amount of sample (5-10 mg) was weighed directly in a hermetic aluminum pan with pin-hole and analyzed according to the parameters below: […]

SMILES: CO[C@]1(C(=O)N[C@@H](C)c2ccc(-n3cc(F)cn3)nc2)CC[C@H](c2nc(C)cc(Nc3cc(C)[nH]n3)n2)CC1 [Solid Form 11-A, pralsetinib]
- mass change by DVS ([1]; between 2% and 90% relative humidity, listed as solid form 11-A): 0.48 wt. %
- mass change by DVS ([1]; between 15% and 75% relative humidity, listed as solid form 11-A): 0.27 wt. %
- DVS Mass Change ([1]; glutarate and succinate: between 2% and 90% relative humidity, listed as Glutarate 11-A): 0.48 wt. %
- reversibility of the DVS mass change ([1]; listed as solid form 11-A): appears to be reversible
- Stability 40° C./75% RH [2]: Stable
- solubility [3]: 240 µg/mL (≈ 450 µM)
- stability slurrying 7 days in EtOAc ([4]; EtOAc): converted to a solid form designated as solid form 11-B
- stability slurrying 7 days in EtOH ([4]; EtOH): converted to a solid form designated as solid form 11-B
- stability of salt solid form to humidification ([5]; listed as Pattern 11-A): stable
- stability of salt solid form to humidification ([5]; listed as glutarate 11-A): stable
- stability of salt solid form to humidification ([5]; listed as solid form 11-A): stable
- stability of salt solid form to drying ([5]; listed as Pattern 11-A): stable
- stability of salt solid form to drying ([5]; listed as glutarate 11-A): stable
- stability of salt solid form to drying ([5]; listed as solid form 11-A): stable
- Endotherm Onset [6]: 177.8 °C
